Measured values published in US8008074B2, “Compositions and methods for improving bone mass through modulation of receptors of PTH and fragments thereof” (The UAB Research Foundation, priority 2006, dated 2011).

Tests used:
β-catenin in osteoblasts [1] = test: β-catenin immunostaining of trabecular bone in mice, 28 days PTH; assay type: in vivo, mouse; details: for percentage of β-catenin positive osteoblasts: 28 days
Source text: (§1) Immunohistochemical staining of representative sections with antibody against β-catenin at 10× objective and 40× objective counterstained with hematoxylin from either primary spongliosa subjacent to the epiphyseal growth plates or Spongiosa subjacent to diaphyseal hematopoietic bone marrow of different time points after PTH single injection in rats. […] Each value is the mean±SEM of determinations in three independent slides of each animal and three animals of each group. Panels B and C show graphs of the expression of MPK1 mRNA and the ratio of RANKL/OPG as quantified by real-time PCR in cavaria tissue from the same animals. Panel D—Immunohistochemical β-catenin staining of representative sections were counterstained with hematoxylin from metaphyseal area of distal femurs of mice at six weeks of age. (i) vehicle control daily injection for 28 days; (ii) hPTH (1-34) 100 ng/g. b.w daily injection for 28 days; (iii) vehicle control continuous infusion with an osmotic pump; and (iv) hPTH (1-34) continuous infusion at 500 ng/h with an osmotic pump. Panel D is a graph showing the numbers of β-catenin-positive osteoblasts as a percent of total osteoblasts per field that were determined. Each value is the mean±SEM of determinations in three independent slides of each animal and three animals of each group.
(§2) The role of β-catenin in PTH-induced bone formation was then examined. PTH stimulates bone formation when injected daily, i.e. intermittent injection, but causes severe bone loss when infusion continuously. Mice were injected either daily or continuously by infusion with an osmotic pump for 28 days. […] Similar results were obtained in double labeling.

[2] = test system: Wnt responsive luciferase reporter (TCF4-Luc); test: TCF4-Luc luciferase reporter assay in UMR 106 cells; assay type: cell-based
Axin = Axin protein levels; assay type: cell-based; details: cells overexpressing LRP6
Source text: Binding of Axin to phosphorylated LRP6 leads to rapid degradation. Then inhibition of Axin/LRP6 binding should […] degradation of Axin. Indeed, Axin degradation is reduced by both inhibitors (data not shown). […] PKA and PKC also were examined to determine whether they regulate PTH-induced PTH1R/LRP6 complex formation. […] Apparently, the receptor complex formation is independent of activation of PKA and PKC. Instead, it seems that activation of G protein-mediated PKA and PKC signaling is in parallel with the recruitment of LRP5/6 in PTH signaling. PKA and PKC activity is required for LRP5/6 phosphorylation and Axin/LRP6 binding.
Wnts induce binding of Axin to phosphorylated LRP6, and the membrane-bound Axin undergoes rapid protein dephosphorylation and degradation, which eventually leads to β-catenin stabilization Willert et al., 1999; Yamamoto et al., 1999).

β-catenin in osteoblasts [3] = test: β-catenin immunostaining of femur and tibia after single PTH injection in rats; assay type: in vivo, rat
Source text: as §1
β-Catenin, activated by either Wnt or TGF signaling, stimulates proliferation of osteoprogenitors and bone formation. […] Therefore, the dynamics of β-catenin levels were determined at various time points after a single dose injection of PTH (1-34) in seven-month-old rats. Sections of femur and tibia were immunostained for HE, trichrome, and β-catenin. The first signs of β-catenin expression in osteoblasts appeared at 2 hours after PTH injection, reached a peak at 8 hours, and decreased at 24 hours. […] Specifically, 99.76% of osteoblasts at primary spongliosa subjacent to the epiphyseal growth plates were β-catenin positive, and 89.91% at spongiosa subjacent to diaphyseal hematopoietic bone marrow were β-catenin positive (FIG. 7A).
To further examine whether LRP5/6 mediates PTH-elevated β-catenin levels in vivo, trabecular bone sections were immunostained with the antibody against phosphorylated PPPSP motif. Formalin-fixed tissue sections of 5 μm thickness were deparaffinized in xylene and rehydrated in graded alcohols. Antigen retrieval was achieved by incubating tissue sections in boiling 10 mmol/L citrate buffer (pH 6.0) for 5 minutes in a microwave oven. All sections were then incubated with hydrogen peroxide for 5 minutes. Subsequently, sections were incubated with the primary antibodies against β-catenin or LRP6 1490 for 1 hour at room temperature. After rinsing the primary antibody in T-PBS, antibody detection was accomplished using the Super Sensitive biotin-streptavidin horseradish peroxidase detection kit (Biogenex, San Ramon, Calif.). The diaminobenzidine tetrachloride Super Sensitive substrate kit (Biogenex, San Ramon, Calif.) was used to visualize the antibody-antigen complex. The sections were then counterstained with hematoxylin. Appropriate negative controls, consisting of tissue sections of each case processed without the addition of primary antibody, were prepared along with positive multitissue control sections. Only those cases with greater than 10% immunohistochemical stains were considered as positive. Assessment of the immunohistochemical staining was performed independently by two pathologists. […]

[4] = Bone formation in mice, daily injection or continuous infusion for 28 days; assay type: in vivo, mouse
Source text: as §1, §2

[5] = test system: TGF-β-induced transcription activity; test: Smad binding response luciferase reporter (SBE-luc) in 293 cells; assay type: cell-based; details: TGF-β 2 ng/ml, 50 nM
Method: A Smad binding response luciferase reporter (SBE-luc) was transfected into 293 cells. TGF-β (2 ng/ml) was added in combination with different doses of PTH (1-34) or cPTH (39-84). Twenty-four hours after transfection, the cells were lysed and the luciferase signal was detected. Luciferase values shown in the figures are representative of transfection experiments performed in triplicate in at least three independent experiments. The relative increased fold of the luciferase activity stimulated by TGF-β in each cell line was calculated.
A Smad binding response luciferase reporter (SBE-luc) was introduced into the multi-cloning site of pcDNA3 (Invitrogen), and the resulting vector was transfected into 293 cells using Lipofectamine Plus reagent (Invitrogen, Cat. No. 10964-013). TGF-β (2 ng/ml) was added in combination with different doses of PTH (1-34) (50 nM) or cPTH (39-84) (50 nM). […] Forty-two hours after transfection, the cells were lysed, and the luciferase signal was detected using the Dual Luciferase assay kit (Promega) according to the manufacturer's instructions.
Luciferase values shown in the figures are representative of transfection experiments performed in triplicate in at least three independent experiments. The relative increased fold of the luciferase activity stimulated by TGF-β in each cell line was calculated.

LRP6/Axin binding = test: Axin-LRP6 binding immunoprecipitation assay; assay type: cell-based; details: HEK 293 cells cotransfected with LRP6, Axin and GSK3β; ligand for 1 hour
TGFβ/Smad signaling = TGFβ/Smad signaling after PTH pretreatment; assay type: cell-based; details: C2C12 cells; TGFβ stimulation
Method: Panel B is a graph showing the decrease in activity from the SBE-luciferase reporter in the presence of PTH and PTH1R.
It has been reported that TGFβ-induced endocytosis of TGFβ/TβRII is mediated by Sara endosome. The response of TβRII to PTH was analyzed to determine whether it is the same as to TGFβ. […] The observation was confirmed by TGFβ-induced interaction between Smad2 and Smad4.

PTH1R-TβRII interaction = target: T1, PTH1R-TβRII interaction (Homo sapiens, UniProt P37173+Q03431); test: YFP protein-fragment complementation assay, TβRII-YFP1 and PTH1R-YFP2; assay type: cell-based; details: both constructs expressed; plasma membrane
T1 construct: expressed in transfected cells
Source text: A yellow fluorescent protein (YFP)-based protein-fragment complementation assay (PCA) was employed (Remy et al., 2004). YFP1 fragment was fused into the C-terminal of TβRII. YFP2 fragment was fused into the C-terminal of PTH1R. The PCA strategy was to facilitate visualization of the PTH1R-TβRII interaction through reconstituted YFP in living cells when the interaction brings the complementary fragments of the YFP into close proximity.
The PTH^TMR was then employed in the PCA experiment. […] Almost all the reconstituted YFP associated with PTH^TMR. The observation was further confirmed by the immunostaining of TβRII and PTH1R in the PTH^TMR-treated cells. TβRII, PTH1R, and PTH ligand predominantly colocalize into the same cytoplasmic vesicles (data not shown).

[6] = rats, 8 hours after single injection of PTH (1-34)
[7] = seven-month-old rats, single dose injection of PTH (1-34)

T1 sequence (Q03431 27-593): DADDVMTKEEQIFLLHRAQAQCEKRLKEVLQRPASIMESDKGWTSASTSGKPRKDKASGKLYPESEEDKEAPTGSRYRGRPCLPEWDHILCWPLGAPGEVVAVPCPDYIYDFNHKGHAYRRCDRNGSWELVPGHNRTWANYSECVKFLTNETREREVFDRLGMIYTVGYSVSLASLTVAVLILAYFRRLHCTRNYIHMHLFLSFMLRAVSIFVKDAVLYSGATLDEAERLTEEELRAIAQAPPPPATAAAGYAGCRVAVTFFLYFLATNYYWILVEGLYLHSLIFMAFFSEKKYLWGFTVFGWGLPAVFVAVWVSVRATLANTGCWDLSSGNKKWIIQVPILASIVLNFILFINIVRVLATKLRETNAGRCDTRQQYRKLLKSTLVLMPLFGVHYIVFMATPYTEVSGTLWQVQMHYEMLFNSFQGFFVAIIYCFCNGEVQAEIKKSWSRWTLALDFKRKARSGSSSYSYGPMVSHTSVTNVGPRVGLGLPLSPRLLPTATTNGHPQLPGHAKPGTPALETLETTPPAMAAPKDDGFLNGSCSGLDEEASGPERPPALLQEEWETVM
T1 sequence (P37173 23-567): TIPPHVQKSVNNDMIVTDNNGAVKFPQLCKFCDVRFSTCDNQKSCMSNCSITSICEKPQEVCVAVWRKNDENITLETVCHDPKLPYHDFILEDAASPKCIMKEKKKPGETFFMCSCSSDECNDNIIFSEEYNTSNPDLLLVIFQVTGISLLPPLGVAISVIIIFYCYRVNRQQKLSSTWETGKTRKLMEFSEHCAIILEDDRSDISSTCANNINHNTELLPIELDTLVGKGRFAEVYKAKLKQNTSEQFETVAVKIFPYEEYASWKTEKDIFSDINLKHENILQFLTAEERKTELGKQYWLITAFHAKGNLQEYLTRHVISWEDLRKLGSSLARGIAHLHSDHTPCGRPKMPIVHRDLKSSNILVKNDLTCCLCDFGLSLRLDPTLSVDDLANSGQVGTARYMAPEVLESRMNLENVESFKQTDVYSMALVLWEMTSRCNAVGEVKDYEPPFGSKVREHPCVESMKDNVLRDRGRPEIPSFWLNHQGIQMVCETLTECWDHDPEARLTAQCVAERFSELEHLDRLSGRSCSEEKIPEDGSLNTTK

## PTH (1-34): N-terminal fragment of PTH, amino acids 1-34
β-catenin in osteoblasts [1]; PTH continuous infusion
  percentage of β-catenin positive osteoblasts: 23.54%
β-catenin in osteoblasts [1]; PTH continuous infusion, in comparison with control
  β-catenin in osteoblasts (immunostaining): reduced the level of β-catenin
β-catenin in osteoblasts [1]; PTH intermittent injection
  β-catenin in osteoblasts (immunostaining): significantly increased β-catenin in osteoblasts
  percentage of β-catenin positive osteoblasts: 96.03%
β-catenin in osteoblasts [1]; data not shown
  levels of β-catenin in osteocytes, osteoclasts, and bone marrow cells: remained barely detectable
[2]; 5×10^−7 M of indicated PTH ligands for 12 hours
  TCF luciferase activity: significantly elevated
[2]; 10^−7M PTH (1-84), 12 hours
  activation of TCF4-Luc reporter: activated the TCF4-Luc reporter
Axin
  Axin protein levels: further downregulated Axin protein levels
β-catenin in osteoblasts [3]; [6]
  β-catenin positive osteoblasts at primary spongliosa subjacent to the epiphyseal growth plates: 99.76%
  β-catenin positive osteoblasts at spongiosa subjacent to diaphyseal hematopoietic bone marrow: 89.91%
β-catenin in osteoblasts [3]; [7]
  first signs of β-catenin expression in osteoblasts after PTH injection: 2 h
  peak of β-catenin expression in osteoblasts after PTH injection: 8 h
β-catenin in osteoblasts [3]; seven-month-old rats, single dose injection of PTH (1-34), 24 hours
  β-catenin expression in osteoblasts at 24 hours: decreased
[4]; PTH continuous infusion
  osteoblast proliferation (BrdU labeling): reduced proliferation
[4]; PTH daily injection
  osteoblast proliferation (BrdU labeling): stimulated
[4]; PTH intermittent injection, data not shown
  mineralization in the trabecular and cortical bone matrix (von Kossa): increased
[4]; continuous infusion with osmotic pump for 28 days (500 ng/h), data not shown
  bone mineral density: decreased
[4]; daily injection for 28 days (100 ng/g b.w), data not shown
  bone mineral density: significantly increased
[4]; primary spongiosa of femur, data not shown
  osteoblast numbers per square millimeter tissue area (N. Ob/T.Ar): increased
[5]
  effect on TGF-β-induced transcription activity (SBE-luc): inhibited TGF-β-induced transcription activity
LRP6/Axin binding
  Axin-LRP6 binding: stimulated Axin-LRP6 binding

## TGF-β1: TGF-β ligand used as stimulus and comparator
TGFβ/Smad signaling
  phosphorylation of Smad2: activated
PTH1R-TβRII interaction
  YFP fluorescence from TβRII-YFP1 and PTH1R-YFP2: did not show such an effect
